The values below come from patent US9346813B2, “Substituted pyrrolo[2,3-d]pyrimindines as CDK9 kinase inhibitors” (AbbVie Inc., priority 2014, dated 2016).

Molecules are shown by their SMILES.

One test has as its target T1, CDK9/Cyclin T1 (Homo sapiens, UniProt P50750).
T1 construct: purchased Carna Biosciences 04-110
As to the kind of experiment: CDK9 enzyme protocol (LANCE ULight TR-FRET kinase assay). The test is classed as biochemical. The note with it: 4 nM CDK9/Cyclin T1, 1000 μM ATP, 100 nM U-light MBP peptide, 30 minutes. As to the method: CDK9 enzyme activities were measured using LANCE ULight TR-FRET kinase assay reagents (PerkinElmer, Waltham, Mass.). Compounds were directly added in 100% DMSO to white low volume assay plates (Perkin Elmer Proxiplate 6008289) using a Labcyte Echo acoustic dispenser. Assay reagents in serine/threonine kinase assay buffer containing 20 mM HEPES, 10 mM MgCl2, 100 mM Na3VO4, and 0.0075% Triton X-100. were added for final reaction mixture concentrations of 1000 μM ATP, 100 nM U-light MBP peptide (Perkin Elmer TRF0109M) and reaction initiated with 4 nM CDK9/Cyclin T1 (Carna Biosciences 04-110). The kinase reaction was carried out for 30 minutes before addition of stopping buffer to a final of 20 mM EDTA and 0.5 nM of LANCE Ultra Europium anti-phospho-MBP antibody (PerkinElmer TRF0201M) in LANCE detection buffer (PerkinElmer CR97-100). The reaction was equilibrated for 1 hour and the signal read in the Perkin Elmer Envision in TR-FRET mode (excitation at 320 nm and emission at 615/665 nm).
Background: Time-resolved FRET reads energy transfer from a long-lived donor to a nearby acceptor.

The subject of another test is H929 cells. As to the kind of experiment: Cell viability assay in H929 cells (Cell TiterGlo). In kind it is cell-based. The note with it: Homo sapiens, NCI-H929, 24 hours at 37° C. How it is done:
Cell viability assays were performed using A431 or H929 cells. A431 cells were seeded in 96-well plates at 10,000 cells/well, and after overnight incubation, treated with compounds at 2-times the final concentration to result in a dose response of 3-fold dilutions from 10 μM to 0.0005 μM (50 μL/well, 0.1% final DMSO concentration). H929 cells were seeded in 96-well plates at 10,000 cells/well and treated immediately with compounds as described above. After 24 hours at 37° C., cell viability was measured using Cell TiterGlo reagent (Promega) with a luminescence reader. Alternately, cell viability assays were performed in 384-well format. A431 cells were seeded in 384-well plates at 2500 cells/well and, after overnight incubation, treated with compounds in a dose response of 3-fold dilutions from 10 μM to 0.0005 μM (25 nL/well, 0.1% final DMSO concentration). For the H929 viability assay, 25 nL/well of the compounds was dispensed into 384-well plates in a dose response as described above and cells were immediately seeded in 384-well plates at 2500 cells/well. After 24 hours at 37° C., cell viability was measured using Cell TiterGlo reagent (Promega) with a luminescence reader.
(ATP-based viability assays read luminescence as a measure of living cells.)

T1 sequence (P50750 whole entry): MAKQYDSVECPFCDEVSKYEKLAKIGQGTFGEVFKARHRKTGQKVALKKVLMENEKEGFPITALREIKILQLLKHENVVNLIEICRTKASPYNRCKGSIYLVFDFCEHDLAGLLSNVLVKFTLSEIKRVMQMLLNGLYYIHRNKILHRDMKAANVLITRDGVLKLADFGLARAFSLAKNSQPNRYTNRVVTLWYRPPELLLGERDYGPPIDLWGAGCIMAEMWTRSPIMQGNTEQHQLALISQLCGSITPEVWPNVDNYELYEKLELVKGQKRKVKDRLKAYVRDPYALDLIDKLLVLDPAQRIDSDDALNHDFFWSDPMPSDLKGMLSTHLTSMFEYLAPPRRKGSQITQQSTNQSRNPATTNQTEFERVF
T1 sequence (O60563 whole entry partner): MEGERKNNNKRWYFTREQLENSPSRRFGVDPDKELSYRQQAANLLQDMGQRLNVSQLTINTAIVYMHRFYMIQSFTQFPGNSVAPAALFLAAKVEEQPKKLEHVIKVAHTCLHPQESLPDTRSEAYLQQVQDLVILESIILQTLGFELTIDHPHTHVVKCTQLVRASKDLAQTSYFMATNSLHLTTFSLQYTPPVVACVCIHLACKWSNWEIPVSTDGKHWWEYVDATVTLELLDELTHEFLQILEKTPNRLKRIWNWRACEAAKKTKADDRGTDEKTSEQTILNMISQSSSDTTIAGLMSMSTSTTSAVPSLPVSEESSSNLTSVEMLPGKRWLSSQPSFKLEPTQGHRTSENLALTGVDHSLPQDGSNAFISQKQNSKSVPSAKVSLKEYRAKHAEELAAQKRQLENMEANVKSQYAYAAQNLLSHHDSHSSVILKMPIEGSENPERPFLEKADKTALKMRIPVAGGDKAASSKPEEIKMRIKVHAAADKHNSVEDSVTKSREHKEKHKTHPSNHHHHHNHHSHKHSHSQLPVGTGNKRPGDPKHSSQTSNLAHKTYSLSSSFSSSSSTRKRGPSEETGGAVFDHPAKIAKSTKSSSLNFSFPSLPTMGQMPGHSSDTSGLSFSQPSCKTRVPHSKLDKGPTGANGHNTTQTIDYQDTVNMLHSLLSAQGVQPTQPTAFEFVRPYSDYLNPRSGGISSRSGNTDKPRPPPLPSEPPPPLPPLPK

For orientation: IC50 means the point on the concentration scale where inhibition reaches its midpoint. Higher therefore signals lower potency. For orientation: EC50 means the concentration giving half of the maximal effect. `COc1ccc(F)cc1-c1ncnc2[nH]c(C3=CCC(N[C@H](C(=O)O)C(C)C)CC3)cc12` (stereo partly drawn) [Example 78, N-{4-[4-(5-fluoro-2-methoxyphenyl)-7H-pyrrolo[2,3-d]pyrimidin-6-yl]cyclohex-3-en-1-yl}-L-valine] had an IC50 against CDK9/Cyclin T1 of 750 nM. The molecule further came in with an EC50 in the test on H929 cells of 6800 nM.
On the same counts, the results for `COc1ccc(F)cc1-c1ncnc2[nH]c(C3=CCN(Cc4cccc(C#N)c4)CC3)cc12` [Example 23, 3-({4-[4-(5-fluoro-2-methoxyphenyl)-7H-pyrrolo[2,3-d]pyrimidin-6-yl]-3,6-dihydropyridin-1(2H)-yl}methyl)benzonitrile] are 270 nM and 420 nM.
On the same counts, the results for `COc1ccc(F)cc1-c1ncnc2[nH]c(C3=CCN(C(=O)C4CCC(=O)NC4)CC3)cc12` (stereo not shown) [Example 14, 5-({4-[4-(5-fluoro-2-methoxyphenyl)-7H-pyrrolo[2,3-d]pyrimidin-6-yl]-3,6-dihydropyridin-1(2H)-yl}carbonyl)piperidin-2-one] are 65 nM and 1700 nM.
At CDK9/Cyclin T1, `COc1ccc(F)cc1-c1ncnc2[nH]c(C3=CCN(C(=O)[C@H]4CC[C@H](C(=O)O)CC4)CC3)cc12` [Example 74, trans-4-({4-[4-(5-fluoro-2-methoxyphenyl)-7H-pyrrolo[2,3-d]pyrimidin-6-yl]-3,6-dihydropyridin-1(2H)-yl}carbonyl)cyclohexanecarboxylic acid] displayed an IC50 of 110 nM. The molecule also had an EC50 with H929 cells of 5900 nM.
On the same counts, the results for `CCN1CCC(C(=O)N2CC=C(c3cc4c(-c5cc(F)ccc5OC)ncnc4[nH]3)CC2)C1` (stereo not shown) [Example 16, (1-ethylpyrrolidin-3-yl){4-[4-(5-fluoro-2-methoxyphenyl)-7H-pyrrolo[2,3-d]pyrimidin-6-yl]-3,6-dihydropyridin-1(2H)-yl}methanone] are 150 nM and 1100 nM.
As for `CS(=O)(=O)N1CC=C(c2cc3c(-c4cc(NCc5ccccc5)ccc4F)ncnc3[nH]2)CC1` [Example 29, N-benzyl-4-fluoro-3-{6-[1-(methylsulfonyl)-1,2,3,6-tetrahydropyridin-4-yl]-7H-pyrrolo[2,3-d]pyrimidin-4-yl}aniline], on CDK9/Cyclin T1, the IC50 stood at 130 nM. In the test with H929 cells, the midpoint of the response, the EC50, lay at 290 nM.
On the same counts, the results for `C=CCNC(=O)N1CC=C(c2cc3c(-c4cc(F)ccc4OC)ncnc3[nH]2)CC1` [Example 19, 4-[4-(5-fluoro-2-methoxyphenyl)-7H-pyrrolo[2,3-d]pyrimidin-6-yl]-N-(prop-2-en-1-yl)-3,6-dihydropyridine-1(2H)-carboxamide] are 88 nM and 180 nM.
For `COc1ccc(F)cc1-c1ncnc2[nH]c(C3=CCN(C(=O)C4CCCOC4)CC3)cc12` (stereo not shown) [Example 15, 4-[4-(5-fluoro-2-methoxyphenyl)-7H-pyrrolo[2,3-d]pyrimidin-6-yl]-3,6-dihydropyridin-1(2H)-yl(tetrahydro-2H-pyran-3-yl)methanone] the same measures were 86 nM and 210 nM.
On the same counts, the results for `COc1ccc(F)cc1-c1ncnc2[nH]c(C3=CCC(C(=O)O)CC3)cc12` (stereo not shown) [Example 79, 4-[4-(5-fluoro-2-methoxyphenyl)-7H-pyrrolo[2,3-d]pyrimidin-6-yl]cyclohex-3-ene-1-carboxylic acid] are 290 nM and 6700 nM.
As for `CCOc1ccc(F)cc1-c1ncnc2[nH]c(C3=CCN(Cc4ccc(NC(C)=O)cc4)CC3)cc12` [Example 68, N-[4-({4-[4-(2-ethoxy-5-fluorophenyl)-7H-pyrrolo[2,3-d]pyrimidin-6-yl]-3,6-dihydropyridin-1(2H)-yl}methyl)phenyl]acetamide], the IC50 on CDK9/Cyclin T1 was determined as 200 nM. Moreover, in the test with H929 cells, the EC50 stood at 420 nM.
As to `COc1ccc(F)cc1-c1ncnc2[nH]c(C3=CCN(Cc4cccnc4)CC3)cc12` [Example 34, 4-(5-fluoro-2-methoxyphenyl)-6-[1-(pyridin-3-ylmethyl)-1,2,3,6-tetrahydropyridin-4-yl]-7H-pyrrolo[2,3-d]pyrimidine], half-maximal inhibition against CDK9/Cyclin T1 (IC50) was put at 170 nM. Also, the midpoint of the response in the test with H929 cells, the EC50, lay at 630 nM.
As to `COc1ccc(F)cc1-c1ncnc2[nH]c(C3=CCN(C(=O)C4CC(=O)N4)CC3)cc12` (stereo not shown) [Example 13, 4-({4-[4-(5-fluoro-2-methoxyphenyl)-7H-pyrrolo[2,3-d]pyrimidin-6-yl]-3,6-dihydropyridin-1(2H)-yl}carbonyl)azetidin-2-one], the half-maximal inhibitory concentration (IC50) at CDK9/Cyclin T1 stood at 69 nM. Besides, the concentration for a half-maximal effect (EC50) with H929 cells was 840 nM.
For `COc1ccc(F)cc1-c1ncnc2[nH]c(C3=CCN(C)CC3)cc12` [Example 4, 4-(5-fluoro-2-methoxyphenyl)-6-(1-methyl-1,2,3,6-tetrahydropyridin-4-yl)-7H-pyrrolo[2,3-d]pyrimidine] the same measures were 23 nM and 350 nM.
`COc1ccc(F)cc1-c1ncnc2[nH]c(C3=CCC(N[C@@H](C(=O)O)C(C)C)CC3)cc12` (stereo partly drawn) [Example 84, N-{4-[4-(5-fluoro-2-methoxyphenyl)-7H-pyrrolo[2,3-d]pyrimidin-6-yl]cyclohex-3-en-1-yl}-D-valine] showed an IC50 on CDK9/Cyclin T1 of 440 nM. In the test on H929 cells, the response was half-maximal at 6400 nM (EC50).
At CDK9/Cyclin T1, `COc1ccc(F)cc1-c1ncnc2[nH]c(C3=CCN(S(=O)(=O)C(C)C)CC3)cc12` [Example 10, 4-(5-fluoro-2-methoxyphenyl)-6-[1-(propan-2-ylsulfonyl)-1,2,3,6-tetrahydropyridin-4-yl]-7H-pyrrolo[2,3-d]pyrimidine] yielded an IC50 of 160 nM. Also, in the test with H929 cells, the EC50 was 550 nM.
Turning to `COc1ccc(F)cc1-c1ncnc2[nH]c(C3=CCN(Cc4ccncc4)CC3)cc12` [Example 27, 4-(5-fluoro-2-methoxyphenyl)-6-[1-(pyridin-4-ylmethyl)-1,2,3,6-tetrahydropyridin-4-yl]-7H-pyrrolo[2,3-d]pyrimidine], inhibition on CDK9/Cyclin T1 was half-maximal at 220 nM (IC50). The molecule also displayed an EC50 in the test with H929 cells of 720 nM.
For the molecule `COc1ccc(F)cc1-c1ncnc2[nH]c(C3=CCOCC3)cc12` [Example 65, 6-(3,6-dihydro-2H-pyran-4-yl)-4-(5-fluoro-2-methoxyphenyl)-7H-pyrrolo[2,3-d]pyrimidine], the IC50 against CDK9/Cyclin T1 stood at 69 nM. Also, in the test on H929 cells, the midpoint of the response, the EC50, lay at 1000 nM.
Take `COc1ccc(F)cc1-c1ncnc2[nH]c(C3=CCN(C(=O)N(C)C)CC3)cc12` [Example 75, 4-[4-(5-fluoro-2-methoxyphenyl)-7H-pyrrolo[2,3-d]pyrimidin-6-yl]-N,N-dimethyl-3,6-dihydropyridine-1(2H)-carboxamide]: the IC50 against CDK9/Cyclin T1 worked out at 16 nM. Moreover, a half-maximal effect in the test with H929 cells (EC50) was put at 600 nM.
For `COc1ccc(F)cc1-c1ncnc2[nH]c(C3=CCN(S(=O)(=O)C4CCS(=O)(=O)C4)CC3)cc12` (stereo not shown) [Example 38, 6-{1-[(1,1-dioxidotetrahydrothiophen-3-yl)sulfonyl]-1,2,3,6-tetrahydropyridin-4-yl}-4-(5-fluoro-2-methoxyphenyl)-7H-pyrrolo[2,3-d]pyrimidine] the same measures were 43 nM and 376 nM.
On to `COc1ccc(F)cc1-c1ncnc2[nH]c(C3=CCN(Cc4ccnc(C(F)(F)F)c4)CC3)cc12` [Example 28, 4-(5-fluoro-2-methoxyphenyl)-6-(1-{[2-(trifluoromethyl)pyridin-4-yl]methyl}-1,2,3,6-tetrahydropyridin-4-yl)-7H-pyrrolo[2,3-d]pyrimidine], for which the half-inhibitory concentration (IC50) against CDK9/Cyclin T1 was found to be 220 nM. Further, in the test on H929 cells, the EC50 is 1000 nM.
In the case of `COc1ccc(F)cc1-c1ncnc2[nH]c(C3=CCC(N[C@H](C(=O)O)C4CCCCC4)CC3)cc12` (stereo partly drawn) [Example 77, (2S)-cyclohexyl({4-[4-(5-fluoro-2-methoxyphenyl)-7H-pyrrolo[2,3-d]pyrimidin-6-yl]cyclohex-3-en-1-yl}amino)acetic acid], the IC50 against CDK9/Cyclin T1 was 290 nM. The molecule further returned a concentration for a half-maximal effect (EC50) in the test on H929 cells of 600 nM.
The molecule `COc1ccc(F)cc1-c1ncnc2[nH]c(C3=CCN(C(=O)C4CC4)CC3)cc12` [Example 11, cyclopropyl{4-[4-(5-fluoro-2-methoxyphenyl)-7H-pyrrolo[2,3-d]pyrimidin-6-yl]-3,6-dihydropyridin-1(2H)-yl}methanone] displayed an IC50 against CDK9/Cyclin T1 of 43 nM. This molecule also displayed an EC50 in the test on H929 cells of 310 nM.
Regarding `COc1ccc(F)cc1-c1ncnc2[nH]c(C3=CCN(CC4CCCO4)CC3)cc12` (stereo not shown) [Example 24, 4-(5-fluoro-2-methoxyphenyl)-6-[1-(tetrahydrofuran-2-ylmethyl)-1,2,3,6-tetrahydropyridin-4-yl]-7H-pyrrolo[2,3-d]pyrimidine], half-maximal inhibition on CDK9/Cyclin T1 (IC50) required 100 nM. Further, the response in the test on H929 cells was half-maximal at 250 nM (EC50).
